Test results: ChEMBL document CHEMBL1132922, “Corticotropin releasing factor (CRF) receptor modulators: progress and opportunities for new therapeutic agents” (J Med Chem, 2000)
pEC50, pIC50, pKi: −log10 of the molar value. Residues, ends and D or L forms follow the SMILES beside them.

How the values were obtained:
[1] = biological target: T1, Corticotropin-releasing factor receptor 1 (Homo sapiens, UniProt P34998); assay: Activity of peptidic agonists on corticotropin releasing factor receptor using agonist-stimulated adenylate cyclase assay; format: functional
T1 sequence (P34998 whole entry): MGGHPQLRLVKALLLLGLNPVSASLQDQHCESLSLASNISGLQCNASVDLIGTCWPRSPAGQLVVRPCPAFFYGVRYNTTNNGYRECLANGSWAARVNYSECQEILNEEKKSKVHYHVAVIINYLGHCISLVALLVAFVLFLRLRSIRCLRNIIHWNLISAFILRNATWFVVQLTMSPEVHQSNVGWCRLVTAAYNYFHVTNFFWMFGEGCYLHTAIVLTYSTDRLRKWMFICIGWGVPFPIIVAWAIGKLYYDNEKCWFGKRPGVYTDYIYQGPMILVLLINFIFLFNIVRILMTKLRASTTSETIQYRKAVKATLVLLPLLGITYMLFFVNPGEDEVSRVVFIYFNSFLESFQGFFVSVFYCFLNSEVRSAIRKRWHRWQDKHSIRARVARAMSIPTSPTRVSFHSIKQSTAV

[2] = biological target: T1, Corticotropin-releasing factor receptor 1; assay: Binding affinity of the receptor corticotropin releasing factor receptor with peptidic agonists
[3] = biological target: T2, Corticotropin-releasing factor receptor 2 (Homo sapiens, UniProt Q13324); assay: Activity of peptidic agonists on h-CRF2-alpha receptor using agonist-stimulated adenylate cyclase assay; format: functional
T2 sequence (Q13324 whole entry): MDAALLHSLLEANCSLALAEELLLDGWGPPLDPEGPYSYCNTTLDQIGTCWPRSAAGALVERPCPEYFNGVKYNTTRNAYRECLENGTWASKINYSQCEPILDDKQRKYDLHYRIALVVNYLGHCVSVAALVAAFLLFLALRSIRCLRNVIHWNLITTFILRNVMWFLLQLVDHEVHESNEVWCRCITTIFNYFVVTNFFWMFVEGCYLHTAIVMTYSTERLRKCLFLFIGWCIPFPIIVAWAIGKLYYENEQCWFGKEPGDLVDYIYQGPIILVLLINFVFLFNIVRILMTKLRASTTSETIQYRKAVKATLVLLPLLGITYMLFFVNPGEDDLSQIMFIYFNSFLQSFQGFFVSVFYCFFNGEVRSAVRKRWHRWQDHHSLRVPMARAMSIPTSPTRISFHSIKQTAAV

[4] = biological target: T2, Corticotropin-releasing factor receptor 2; assay: Binding affinity of the receptor h-CRF2-alpha with peptidic agonists
Rattus norvegicus [5] = species: Rattus norvegicus; assay: 50% inhibitory concentration to antagonize Corticotropin releasing factor (CRF) stimulated adenylate cyclase; format: functional
HEK293 = assay: Inhibition of h- CRF mediated increase in adenylate cyclase activity was evaluated in HEK293 cells; format: functional, cell-based; details: Homo sapiens
[6] = biological target: T1, Corticotropin-releasing factor receptor 1; assay: Compound was tested for the binding affinity to human corticotropin releasing factor 1 (hCRF1) receptors
Rattus norvegicus [7] = assay: Percent reduction in latency time in the dark compartment at 20 mg/kg was reported; format: functional
Rattus norvegicus [8] = assay: Minimum effective dose in rat […] anxiety test when administered perorally; format: functional; details: po, read-out: MED
Rattus norvegicus [9] = species: Rattus norvegicus; assay: Oral activity was evaluated in an rat situational anxiety test; format: functional
[10] = biological target: T3, Corticotropin releasing factor receptor (Rattus norvegicus, UniProt P47866+P35353); assay: Inhibition of binding of the radioligand, [125 I-Tyr0]-CRF to rat cerebral cortex membrane; format: tissue-based
[11] = biological target: T3, Corticotropin releasing factor receptor; assay: Compound was tested for the inhibition of binding of the radioligand, [125 I-Tyr0]-CRF to rat cerebral cortex membrane; format: tissue-based
[12] = biological target: T3, Corticotropin releasing factor receptor; assay: (§1) Compound was tested for the binding affinity to rat corticotropin releasing factor receptor; format: protein assay
[13] = biological target: T3, Corticotropin releasing factor receptor; assay: as §1; format: protein assay; remark: listed apart in the source

Molecule | pEC50 [1] | pKi [2] | pEC50 [3] | pKi [4] | pIC50 (Rattus norvegicus [5]) | also measured
CC[C@H](C)[C@H](NC(=O)[C@@H](NC(=O)[C@H](CC(=O)O)NC(=O)[C@H](CC(C)C)NC(=O)[C@H](CC(C)C)NC(=O)[C@H](CC(C)C)NC(=O)[C@H](CCCN=C(N)N)NC(=O)[C@H](CC(N)=O)NC(=O)[C@H](CC(N)=O)NC(=O)[C@H](C)NC(=O)[C@H](C)NC(=O)[C@H](CCC(N)=O)NC(=O)[C@H](CCC(N)=O)NC(=O)[C@H](CCCCN)NC(=O)[C@H](CCC(=O)O)NC(=O)[C@H](CCCCN)NC(=O)[C@H](CCC(=O)O)NC(=O)[C@H](CCC(N)=O)NC(=O)[C@H](CCCCN)NC(=O)[C@H](CCC(=O)O)NC(=O)[C@@H](NC(=O)[C@H](CCC(=O)O)NC(=O)[C@@H](NC(=O)[C@H](CCSC)NC(=O)[C@H](CCCCN)NC(=O)[C@H](CCCN=C(N)N)NC(=O)[C@H](CC(C)C)NC(=O)[C@H](CC(C)C)NC(=O)[C@H](CCC(=O)O)NC(=O)[C@H](CC(C)C)NC(=O)[C@H](CO)NC(=O)[C@H](CC(C)C)NC(=O)[C@H](CC(=O)O)NC(=O)[C@@H](NC(=O)[C@H](CO)NC(=O)[C@@H](NC(=O)[C@@H]1CCCN1C(=O)[C@@H]1CCCN1C(=O)CNC(=O)[C@@H](N)CCC(N)=O)[C@@H](C)CC)[C@@H](C)CC)[C@@H](C)CC)[C@@H](C)CC)[C@@H](C)O)C(N)=O | 8.47 | 8.14 | 8.85 | 8.56 |  | 
Cc1cc(C)nc(N(C)c2ccccc2Br)n1 |  |  |  |  | 4.70 | 
CCC(CC)Nc1cc(C)nc2c(-c3ccc(OC)cc3C)c(C)nn12 |  |  |  |  |  | pIC50 (HEK293): 5.00; pKi [6]: 9.00; Reduction (Rattus norvegicus [7]): 57%; minimal effective dose (Rattus norvegicus [8]): 1 mg/kg; ED50 (Rattus norvegicus [9]): 1 mg/kg
Cc1c(SSc2c(C)n(C)n(-c3ccc4ccccc4c3)c2=O)c(=O)n(-c2ccc3ccccc3c2)n1C |  |  |  |  | 6.00 | IC50 [10]: 3300 nM
CCN(c1nc(C)cc(N2CC=C(c3cccc(F)c3)CC2)n1)c1ccc(C(C)C)cc1Br |  |  |  |  |  | IC50 [11]: 22.1 nM
CCCCC(CC)n1c(C)nc2c(-c3ccc(Cl)cc3Cl)ncnc21 (stereo not given) |  |  |  |  |  | Ki [12]: 8.8 nM
CC(=O)Sc1c(C)n(C)n(-c2ccccc2)c1=O |  |  |  |  | 5.54 | IC50 [10]: 13700 nM
CC[C@H](C)[C@H](NC(=O)[C@H](CO)NC(=O)[C@H](CC(C)C)NC(=O)[C@H](CO)NC(=O)[C@@H]1CCCN1C(=O)[C@H](CC(N)=O)NC(=O)[C@@H](N)CC(=O)O)C(=O)N[C@@H](CC(=O)O)C(=O)N[C@@H](CC(C)C)C(=O)N[C@H](C(=O)N[C@@H](Cc1ccccc1)C(=O)N[C@@H](Cc1cnc[nH]1)C(=O)N[C@@H](CC(C)C)C(=O)N[C@@H](CC(C)C)C(=O)N[C@@H](CCCNC(=N)N)C(=O)N[C@H](C(=O)N[C@@H](CC(C)C)C(=O)N[C@@H](CC(C)C)C(=O)N[C@@H](CCC(=O)O)C(=O)N[C@@H](CC(C)C)C(=O)N[C@@H](C)C(=O)N[C@@H](CCCNC(=N)N)C(=O)N[C@H](C(=O)N[C@@H](CCC(N)=O)C(=O)N[C@@H](CO)C(=O)N[C@@H](CCC(N)=O)C(=O)N[C@@H](CCCNC(=N)N)C(=O)N[C@@H](CCC(=O)O)C(=O)N[C@@H](CCCNC(=N)N)C(=O)N[C@@H](C)C(=O)N[C@@H](CCC(=O)O)C(=O)N[C@@H](CCC(N)=O)C(=O)N[C@@H](CC(N)=O)C(=O)N[C@@H](CCCNC(=N)N)C(=O)N[C@H](C(=O)N[C@H](C(=O)N[C@@H](Cc1ccccc1)C(=O)N[C@@H](CC(=O)O)C(=O)N[C@@H](CO)C(=O)N[C@H](C(N)=O)C(C)C)[C@@H](C)CC)[C@@H](C)CC)[C@@H](C)O)[C@@H](C)O)[C@@H](C)O (H-DNPSLSIDLTFHLLRTLLELARTQSQRERAEQNRIIFDSV-NH2) | 9.66 | 8.42 | 9.49 | 8.44 |  | 
CCCCN(CC)c1nc(C)nc2c1c(C)c(C)n2-c1c(C)cc(C)cc1C [ANTALARMIN] |  |  |  |  |  | Ki [13]: 1 nM
H-NDDPPISIDLTFHLLRNMIEMARIENEREQAGLNRKYLDEV-NH2 | 8.20 | 8.97 | 8.82 | 8.90 |  | 
